Consider four molecules from US9090549B2, “1,4-naphthoquinones derivatives and therapeutic use thereof” (CENTRE NATIONAL DE LA RECHERCHE SCIENTIFIQUE (C.N.R.S.), priority 2008, dated 2015).

Molecules are shown by their SMILES. Where two headings read alike, the source gives them in different places.

In series [1] the test system is P. falciparum multidrug-resistant strain Dd2. The experiment in a line: Dd2 growth inhibition, 3H-hypoxanthine assay. In kind it is cell-based, Plasmodium falciparum. As to conditions: Plasmodium falciparum. The protocol:
The IC50 was tested by standard in vitro antiproliferation assays (Desjardins et al, 1979 Antimicrob. Agents Chemother 1979, 16, 710-718). Infected erythrocytes in ring stage (0.5% parasitemia, 2.5% hematocrit) in 96-well plates were exposed to the compounds for 48 h and then to radioactive hypoxanthine for 24 h. The amount of radioactivity in precipitable material served as an index of cell proliferation.

A further series deals with P. falciparum FCM29. The experiment in a line: microbe, parasite or virus in culture. As to conditions: Plasmodium falciparum, 48 h.
The next series concerns P. berghei ANKA. The experiment in a line: In vivo 4-day suppressive test in P. berghei-infected mice. Also on record: species or system Plasmodium berghei. Particulars: for reduction of the parasitemia: Plasmodium Berghei ANKA-infected CD1 mice. The protocol:
The in vivo tests in the mouse model were done according to a standard protocol (Peters et al Handbook of Animal Models of Infection; Academic Press, London, 1999; pp. 756-771). […] […] For administration, compounds were freshly prepared in 10% DMSO in sterile phosphate-buffered saline the day of use. Two hours post-infection mice received the first treatment by the intraperitoneal route. Mice were further treated on days +1-3. Blood films from tail blood were prepared on day +4, and parasitaemia was determined by microscopic examination of Giemsa-stained blood films. […] […] Mice were treated and levels of parasitemia determined as described.

For another series, the system named is P. falciparum 3D7. The experiment in a line: microbe, parasite or virus in culture. As to conditions: Plasmodium falciparum, 3D7, 48 h.
For series [2], the system named is P. falciparum chloroquine sensitive strain 3D7. Put plainly: 3D7 growth inhibition, 3H-hypoxanthine assay. Particulars: read-out: IC50 against Pf 3D7. In kind it is cell-based, Plasmodium falciparum. The method, then: (§1) The IC50 values against Pf-GHA and MRC-5 were determined by using the less sensitive colorimetric NBT-based lactate dehydrogenase assay (Makler et al, Am. J. Trop. Med. Hyg. 1993, 48 (6), 739-741) based on redox-reactions.
(§2) Parasite Cultures. […] P. falciparum in vitro culture was carried out using standard protocols (Trager et al, 1976 Science, 193, 673-675) with modifications. Briefly, parasites were maintained in tissue culture flasks in human A Rh+ erythrocytes at 5% hematocrit in RPMI 1640 supplemented with 25 mM HEPES, 24 mM NaHCO3, 0.2% (w/v) glucose, 0.03% L-glutamine, 150 μM hypoxanthine, and 0.5% Albumax II® (Invitrogen) in a 5% CO2/air mixture at 37° C., and the medium was changed daily.
(§3) In Vitro Antiparasitic Bioassays. Drug susceptibility of P. falciparum was studied using a modified method (Cameron et al, 2004 J. Biol. Chem. 279, 31429-31439) of the protocol described previously (Desjardins et al, 1979). All assays included CQ diphosphate (Sigma, UK) as a standard and control wells with untreated infected and uninfected erythrocytes. IC50 values were derived by sigmoidal regression analysis (Microsoft Xlfit™).

The test system of series [3] is P. falciparum chloroquine resistant strain K1. Put plainly: K1 growth inhibition, 3H-hypoxanthine assay. Format: cell-based, Plasmodium falciparum. Particulars: read-out: IC50 against Pf K1. The protocol: as §1, §2, §3
The next series has as its system Pf-GHA. Put plainly: Pf-GHA growth inhibition, colorimetric NBT-based lactate dehydrogenase assay. Format: cell-based. Particulars: Plasmodium falciparum, read-out: IC50 against Pf-GHA. The method, then:
as §1
In Vitro Antiparasitic Bioassays. The strain is maintained in RPMI-1640 medium supplemented with 0.37 mM hypoxanthine, 25 mM HEPES, 25 mM NaHCO3, and 10% O^+ human serum together with 2-4% washed human O^+ erythrocytes. All cultures and assays are conducted under an atmosphere of 4% CO2, 3% O2 and 93% N2. Assays are performed in 96-well microtiter plates, each well containing 10 μL of the watery compound dilutions together with 190 μL of the malaria parasite inoculum (1% parasitaemia, 2% HCT). After 72 h incubation, plates are frozen and stored at −20° C. After thawing, 20 μL of each well is transferred into another plate together with 100 μL Malstat reagent and 20 μL of 1/1 mixture of PES (phenazine ethosulfate, 0.1 mg/mL) and NBT (Nitro Blue Tetrazolium Grade III, 2 mg/mL). Change in colour is measured spectrophotometrically at 655 nm. The results are expressed as % reduction in parasitaemia compared to control wells. Compounds are treated at 5 concentrations (64-16-4-1 and 0.25 μM or μg/mL).

The test system of the next series is Pf H. The experiment in a line: microbe, parasite or virus in culture. As to conditions: Plasmodium falciparum, read-out: IC50 against Pf H.
Series [4] has as its target T1, P. falciparum glutathione reductase (PfGR) (Plasmodium falciparum, UniProt Q94655). Put plainly: 1,4-Naphthoquinone reductase activity of P. falciparum glutathione reductase. Format: biochemical. Particulars: with respect to menadione. The protocol: The reduction assay mixture consisted of 100 mM potassium phosphate buffer pH 6.9, 200 mM KCl, 1 mM EDTA and 100 μM NADPH in a total volume of 1 mL. 1,4-naphthoquinone reductase activity was determined by recording the initial velocities in the presence of increasing naphthoquinone concentrations (0-300 μM). […] For the determination of KM and Vmax values, the steady-state rates were fitted by using nonlinear regression analysis software (Kaleidagraph) to the Michaelis-Menten equation. From these values, the turnover number kcat and the catalytic efficiency kcat/KM were calculated.

Series [5] deals with T2, human glutathione reductase (hGR) (Homo sapiens, UniProt P00390).
T2 sequence (P00390 44-522): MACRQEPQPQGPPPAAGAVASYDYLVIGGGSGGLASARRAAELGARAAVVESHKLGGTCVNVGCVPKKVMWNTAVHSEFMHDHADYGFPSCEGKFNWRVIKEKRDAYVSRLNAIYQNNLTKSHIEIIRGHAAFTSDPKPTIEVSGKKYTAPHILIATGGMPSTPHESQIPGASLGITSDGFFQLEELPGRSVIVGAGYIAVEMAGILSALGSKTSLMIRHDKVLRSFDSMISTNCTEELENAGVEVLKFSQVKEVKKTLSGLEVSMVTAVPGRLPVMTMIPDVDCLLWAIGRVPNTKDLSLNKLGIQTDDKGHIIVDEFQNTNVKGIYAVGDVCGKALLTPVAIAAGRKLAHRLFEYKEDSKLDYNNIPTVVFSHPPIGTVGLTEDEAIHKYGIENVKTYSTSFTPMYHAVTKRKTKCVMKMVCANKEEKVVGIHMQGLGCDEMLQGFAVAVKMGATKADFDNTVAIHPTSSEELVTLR
Put plainly: Inhibition of human glutathione reductase under steady-state conditions. In kind it is biochemical. Particulars: pH 6.9, 25° C., 1 mM GSSG, 100 μM NADPH.

Series [6] addresses T1, P. falciparum glutathione reductase (PfGR). The experiment in a line: biochemical.
Experimental: The standard assay was conducted at 25° C. in a 1 mL-cuvette. The assay mixture contained 100 μM NADPH and 1 mM GSSG in GR buffer (100 mM potassium phosphate buffer, 200 mM KCl, 1 mM EDTA, pH 6.9). […] Inhibitor stock solutions were prepared in 100% DMSO. 1% DMSO concentration was kept constant in the assay cuvette. The reaction was started by adding enzyme (8 mU human GR, 6.5 mU P. falciparum GR) and initial rates of NADPH oxidation were monitored at 340 nm (ε340 nm=6.22 mM^−1 cm^−1).
The target in series [7] is T2, human glutathione reductase (hGR). Particulars: menadione reference, Bauer et al 2006; cited from earlier work.
In the next series the target is methemoglobin(Fe3+) (Homo sapiens, UniProt P68871+P69905). Put plainly: Redox-cycling of methemoglobin(Fe3+) into oxyhemoglobin(Fe2+) with NADPH/GR system. Format: biochemical. Particulars: 100 μM MetHb, NADPH, human GR. The text has this: Since FPIX(Fe^2+) is an inhibitor of hematin polymerization, compounds displaying the ability to reduce FPIX(Fe^3+) into FPIX(Fe^2+) might synergistically contribute with GR inhibition to increased oxidative stress in infected-red blood cells. To evaluate the redox-cycling activity of FPIX(Fe^3+) into FPIX(Fe^2+) we set up an assay using the naphthoquinone, the glutathione reductase/NADPH-based system to regenerate the dihydronaphthoquinone continuously and methemoglobin(Fe^3+) (MetHb). The UV-spectrum of MetHb between 300 nm and 700 nm is characterized by a maximal absorbance at 405 nm and a broad band centered at around 630 nm. […] We used 20 μM methylene blue as positive control of this redox-cycling activity.
methemoglobin(Fe3+), sequence (P69905 2-142 limits assumed): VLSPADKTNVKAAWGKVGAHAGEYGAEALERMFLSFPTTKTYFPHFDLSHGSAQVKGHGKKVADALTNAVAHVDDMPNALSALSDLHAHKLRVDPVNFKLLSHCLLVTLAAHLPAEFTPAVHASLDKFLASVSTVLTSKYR
methemoglobin(Fe3+), sequence (P68871 2-147 limits assumed): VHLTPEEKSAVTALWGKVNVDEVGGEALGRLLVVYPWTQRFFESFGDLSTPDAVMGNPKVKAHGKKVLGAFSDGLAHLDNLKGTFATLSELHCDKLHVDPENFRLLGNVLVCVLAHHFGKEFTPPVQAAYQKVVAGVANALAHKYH
In an Eppendorf tube containing 6.4 mg MetHb dissolved in 885 μL GR buffer (47 mM potassium phosphate buffer pH 6.9, 200 mM KCl, 100 mM EDTA), 10 μL 20 mM P_TM25 dissolved in DMSO and 100 μL NADPH dissolved in GR buffer were added. The reaction was started by the addition of 5 μL human GR and then incubated at 37° C. In a 1 mL cuvette 20 μL of the reaction mixture was diluted with 980 μL GR buffer and a UV-spectra between 300 nm and 700 nm was done after 5 min, 10 min, 20 min and 30 min incubation time. The final concentrations in the reaction mixture were 100 μM MetHb, 200 μM P_TM25, 400 μM NADPH and […] hGR, final DMSO concentration 1%.
Spectra were measured after 5 min (blue), 10 min (black), 20 min (green) and 30 min (red).

Series [8] concerns the target T1, P. falciparum glutathione reductase (PfGR). As to conditions: menadione reference, Bauer et al 2006; cited from earlier work.
For series [9] the target is unchanged. Particulars: menadione against PfGR, Biot et al 2004; cited from earlier work.

T1 sequence (Q94655 2-500 limits assumed): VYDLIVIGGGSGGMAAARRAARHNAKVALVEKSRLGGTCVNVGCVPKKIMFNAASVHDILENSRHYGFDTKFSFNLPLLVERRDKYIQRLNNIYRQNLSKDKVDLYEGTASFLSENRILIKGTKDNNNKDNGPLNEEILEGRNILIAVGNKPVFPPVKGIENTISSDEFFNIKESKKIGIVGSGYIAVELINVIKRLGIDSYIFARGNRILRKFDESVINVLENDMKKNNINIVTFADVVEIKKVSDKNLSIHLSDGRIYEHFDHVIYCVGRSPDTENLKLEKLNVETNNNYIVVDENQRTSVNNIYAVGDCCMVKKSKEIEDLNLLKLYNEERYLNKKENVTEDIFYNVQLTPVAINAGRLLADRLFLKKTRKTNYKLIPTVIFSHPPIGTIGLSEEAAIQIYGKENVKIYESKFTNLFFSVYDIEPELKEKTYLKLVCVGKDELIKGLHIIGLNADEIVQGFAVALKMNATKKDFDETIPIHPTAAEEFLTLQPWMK
Experimental for P. falciparum 3D7: (§4) Twelve parasite strains or isolates from a wide panel of countries (Africa (3D7), Brazil (Bre), Cambodia (K2 and K14), Cameroon (FCM29), Djibouti (Vol1), the Gambia (FCR3), Indochina (W2), Niger (L1), Senegal (8425), Sierra Leone (D6), and Uganda (PA)) were maintained in culture in RPMI 1640 (Invitrogen, Paisley, United Kingdom), supplemented with 10% human serum (Abcys S.A. Paris, France) and buffered with 25 mM HEPES and 25 mM NaHCO3. Parasites were grown in A-positive human blood under controlled atmospheric conditions that consists of 10% O2, 5% CO2 and 85% N2 at 37° C. with a humidity of 95%.
(§5) FQ and synthetic compounds were resuspended and then diluted in RPMI-DMSO (99 v/1 v) to obtain final concentration ranged from 0.125 to 500 nM. […]
(§6) For in vitro isotopic microtests, 25 μL/well of antimalarial drug and 200 μL/well of the parasitized red blood cell suspension (final parasitemia, 0.5%; final hematocrit, 1.5%) were distributed into 96 well plates. Parasite growth was assessed by adding 1 μCi of tritiated hypoxanthine with a specific activity of 14.1 Ci/mmol (Perkin-Elmer, Courtaboeuf, France) to each well at time zero. […] Radioactivity incorporated by the parasites was measured with a scintillation counter (Top Count; Perkin-Elmer).
(§7) The IC50 value was determined by non-linear regression analysis of log-based dose-response curves (Riasmart™, Packard, Meriden, USA).
Experimental for P. falciparum FCM29: as §4, §5, §6, §7

A word on the IC50: it is the concentration that gives 50% inhibition. As usually defined, the IC90 is the point of the concentration-response curve where the effect stands at 90%. For `CCN(CC)CCCC(C)Nc1ccnc2cc(Cl)ccc12` (stereo not shown) [chloroquine, reference compound], the IC50 is 291 nM in series [1] (DD2, read-out: IC50 against Dd2); 879 nM with P. falciparum FCM29 (read-out: IC50 against strain FCM29); 21.3 nM in the series with P. falciparum 3D7 (read-out: IC50 against strain 3D7); roughly 20 nM in [2]; roughly 1000 nM in series [3]; 50 nM in the series with Pf-GHA (72 h). Further, in the series with Pf H, the IC50 was found to be 217 nM. In addition, the results for the IC90 in the series with P. falciparum FCM29 (read-out: IC90 against strain FCM29) and in the series with P. falciparum 3D7 (read-out: IC90 against strain 3D7) were 1240 nM and 40.4 nM, respectively. Further, the “reduction of the parasitemia” value is 2.5% with P. berghei ANKA (1.0 mg/kg), 16.6% in the series with P. berghei ANKA (3.0 mg/kg) and 94.9% with P. berghei ANKA (10.0 mg/kg). For the same molecule, the inhibition of parasitaemia in the series with P. berghei ANKA (10 mg/kg i.p.) is recorded as 98.9%; in the series on P. berghei ANKA (p.o. at 10 mg/kg/day, positive control) it was “complete inhibition”.

As usually defined, the melting point is the temperature of the solid-liquid transition. `CC1=C(C(O)c2ccc(Br)cc2)C(=O)c2ccccc2C1=O` (stereo not shown) [P_TM23, 2-[(4-Bromo-phenyl)-hydroxy-methyl]-3-methyl-[1,4]naphthoquinone]: the melting point was 61 to 62 °C. Also, the “substrate behaviour from catalytic efficiencies kcat/KM” value in series [4] is reported as “very effective substrates”. This molecule also displayed a concentration for half-maximal inhibition (IC50) in [5] of 1300 nM. In [6], this molecule returned an IC50 of 4.5 µM.

The Km is the concentration of substrate that gives half-maximal velocity. The kcat is the maximal rate divided by the concentration of active sites. In the case of `CC1=CC(=O)c2ccccc2C1=O` [menadione], the half-inhibitory concentration (IC50) in [7] was 27.5 µM; in [8] it was 42 µM. The “concentration at which the shift of maximal absorbance of MetHb from 405 to 410 nm starts being visible” value on methemoglobin(Fe3+) came out at 50 µM. The Km in series [9] is 82.2 µM. Besides, the kcat in series [9] is 9.6 min⁻¹.

Consider `CC1=C(Cc2ccc(C)cc2)C(=O)C2C=CC=CC2C1=O` (stereo not shown) [P_TM21, 2-Methyl-3-(4-methyl-benzyl)-4a,8a-dihydro-[1,4]naphthoquinone], for which the melting point was 225 °C (dec.). For the same molecule, the half-maximal inhibitory concentration (IC50) in [1] (DD2, 48 h exposure then 24 h hypoxanthine, read-out: IC50 against Dd2) is 791 nM. The concentration for half-maximal inhibition (IC50) in series [2] (Plasmodium falciparum, 3D7) is 270 nM. Besides, in series [3] (Plasmodium falciparum, K1), the IC50 amounted to 100 nM. Further, in the series with Pf-GHA (72 h incubation), the IC50 was less than 5000 nM.
